Data taken from patent US11731964B2, “Benzamide antibacterial agents” (Purdue Research Foundation, priority 2018, dated 2023).
≈ marks a conversion by molar mass, not a printed value.

Assays:
MRSA NRS386 (USA700) = test: MIC and MBC; type: cell-based; conditions: Staphylococcus aureus, MRSA NRS386 (USA700)
Description: (§1) Bacteria were cultured in cation-adjusted Mueller Hinton Broth (for strains in Tables 1 and 4) or Brain Heart Infusion broth (for Enterococcus faecium) or Tryptic Soy Broth (all other bacteria) in a 96-well plate at 37° C. for at least 20 hours. The MIC was classified as the lowest concentration where no visual growth of bacteria was observed. The minimum bactericidal concentration (MBC) was tested by spotting 4 μL from wells with no growth onto Tryptic Soy Agar (TSA) plates. Plates were incubated at 37° C. for at least 18 hours before recording the MBC.

E. faecium ATCC = test: MIC and MBC; type: cell-based; conditions: Enterococcus faecium, E. faecium ATCC
Description: as §1

MRSA NRS385 (USA500) = test: MIC and MBC; type: cell-based; conditions: Staphylococcus aureus, MRSA NRS385 (USA500)
Description: as §1

MRSA NRS387 (USA800) = test: MIC and MBC; type: cell-based; conditions: Staphylococcus aureus, MRSA NRS387 (USA800)
Description: as §1

MRSA NRS384 (USA300) = test: MIC and MBC; type: cell-based; conditions: Staphylococcus aureus, MRSA NRS384 (USA300)
Description: as §1

MRSA NRS123 (USA400) = test: MIC and MBC; type: cell-based; conditions: Staphylococcus aureus, MRSA NRS123 (USA400)
Description: as §1

S. aureus ATCC 25923 = test: MIC, broth microdilution; type: cell-based; conditions: Staphylococcus aureus, ATCC25923; S. aureus ATCC 25923; read-out: MIC
Outline: (§2)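 Visual read-out: the minimum inhibitory concentration is the lowest concentration lacking bacterial growth following incubation of ≥20 h at 37° C. Media varied by organism (CA-MHB, TSB, or BHI for E. faecium). Bactericidal concentration came from subculturing clear wells onto Tryptic Soy Agar for ≥18 h.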

[1] = test system: L. monocytogenes ATCC 19115; test: MIC, broth microdilution; type: cell-based; conditions: Listeria monocytogenes, ATCC19115; L. monocytogenes ATCC 19115; read-out: MIC
Outline: as §2

E. faecalis ATCC 29212 = test: MIC, broth microdilution; type: cell-based; conditions: Enterococcus faecalis, ATCC29212; E. faecalis ATCC 29212; read-out: MIC
Outline: as §2

[2] = test system: VRE (E. faecalis) ATCC 51575; test: MIC, broth microdilution; type: cell-based; conditions: VRE (E. faecalis) ATCC 51575; read-out: MIC
Outline: as §2

MRSA USA400 (NRS123) = type: cell-based, Staphylococcus aureus
From the text: Resistance was classified as a greater than four-fold increase in the initial MIC, as reported elsewhere^30 (Farrell D J, Robbins M, Rhys-Williams W, Love W G. Investigation of the potential for mutational resistance to XF-73, retapamulin, mupirocin, fusidic acid, daptomycin, and vancomycin in methicillin-resistant Staphylococcus aureus isolates during a 55-passage study. Antimicrob Agents Chemother. 2011; 55(3):1177-81).

[3] = test system: human colorectal (Caco-2) cells; test: Toxicity profile, MTS viability assay; type: cell-based; conditions: 24 hours, tested 2 to 256 μg/mL
Description: (§3) Compound F6 was assayed (at concentrations ranging from 2 μg/mL to 256 μg/mL) against murine macrophage (J774) and human colorectal (Caco-2) epithelial cell lines to determine the potential toxic effect to mammalian cells in vitro. Caco-2 cells were cultured in Dulbecco's Modified Eagle Medium (DMEM) supplemented with 20% fetal bovine serum (FBS), non-essential amino acids (1×), and penicillin-streptomycin at 37° C. with CO2 (5%). J774 cells were cultured in DMEM supplemented with 10% FBS. Upon reaching 85-90% confluency, cells were transferred to all wells of a 96-well tissue-culture treated plate. The cells were incubated in serum-free medium with the compounds (in triplicate) at 37° C. with CO2 (5%) for 24 hours. Cells exposed to equivalent concentrations of DMSO served as the negative control. The assay reagent MTS 3-(4,5-dimethylthiazol-2-yl)-5-(3-carboxymethoxyphenyl)-2-(4-sulfophenyl)-2H-tetrazolium) (Promega, Madison, Wis., USA) was subsequently added and the plate was incubated for four hours. Absorbance readings (at OD490) were taken using a kinetic microplate reader (Molecular Devices, Sunnyvale, Calif., USA). The quantity of viable cells after treatment with each compound was expressed as a percentage of the viability of DMSO-treated control cells (average of triplicate wells±standard deviation). The toxicity data were analyzed via a two-way ANOVA, with post hoc Sidak's multiple comparisons test (P<0.05), utilizing GraphPad Prism 6.0 (GraphPad Software, La Jolla, Calif., USA).

[4] = test system: murine macrophage (J774) cells; test: Toxicity profile, MTS viability assay; type: cell-based
Description: as §3

[5] = test system: Escherichia coli JW5503-1 (ΔtolC); test: MIC against Gram-negative pathogens (efflux pump knockout); type: cell-based
Description: as §1

MRSA USA300 = test: Time-kill analysis; type: cell-based, Staphylococcus aureus
Description: The time-kill analysis was performed as previously described^29. […] Aliquots (100 μL) were collected from each treatment after 0, 2, 4, 8, 12, and 24 hours of incubation at 37° C. and subsequently serially diluted in phosphate-buffered saline (PBS). Bacteria were then transferred to TSA plates and incubated at 37° C. for 18-20 hours before viable CFU/mL was determined.

S. aureus = test: Screening of compounds for growth inhibition of S. aureus at 16 μg/mL (OD600); type: cell-based; conditions: compound at 16 μg/mL, 24 hours, compared to DMSO control
Description: Library compounds and analogs of F6 were dissolved in DMSO at 10 mg/mL. S. aureus was cultured in Mueller Hinton Broth to early exponential phase at which point culture aliquots were incubated with compounds at 16 μg/mL or DMSO in duplicates. The culture was continued at 37° C. for 24 hours. Aliquots (100 μL) of the cultures were dispensed into clear 96 well microtiter plates and OD600 was recorded. Percent normalized OD600 was obtained by using the equation [formula] wherein for a given compound, X is the OD600 of culture with the compound, Xo is that of media only and XT is the OD600 of the DMSO control.

`CC1CC(C)CN(S(=O)(=O)c2ccc(C(=O)Nc3nnc(-c4cccs4)o3)cc2)C1` (centres unmarked) [Compound F6] was tested, and the MBC (MRSA NRS386 (USA700); read-out: MBC) was greater than 128 µg/mL, the MIC (MRSA NRS386 (USA700); read-out: MIC) was 2 µg/mL (≈ 4.48 µM) and the MBC (E. faecium ATCC; read-out: MBC) was 128 µg/mL (≈ 287 µM). For the same compound, the MIC (E. faecium ATCC; read-out: MIC) was 2 µg/mL (≈ 4.48 µM), the MBC (MRSA NRS385 (USA500); read-out: MBC) was greater than 128 µg/mL and the MIC (MRSA NRS385 (USA500); read-out: MIC) was 2 µg/mL (≈ 4.48 µM). It also gave an MBC (MRSA NRS387 (USA800); read-out: MBC) greater than 128 µg/mL, an MIC (MRSA NRS387 (USA800); read-out: MIC) of 2 µg/mL (≈ 4.48 µM) and an MBC (MRSA NRS384 (USA300); read-out: MBC) greater than 128 µg/mL. The MIC (MRSA NRS384 (USA300); read-out: MIC) was 2 µg/mL (≈ 4.48 µM), the MBC (MRSA NRS123 (USA400); read-out: MBC) was greater than 128 µg/mL and the MIC (MRSA NRS123 (USA400); read-out: MIC) was 2 µg/mL (≈ 4.48 µM). The MIC (S. aureus ATCC 25923) was 2 µg/mL (≈ 4.48 µM), the MIC [1] was 4 µg/mL (≈ 8.96 µM) and the MIC (E. faecalis ATCC 29212) was 4 µg/mL (≈ 8.96 µM). The MIC [2] was 4 µg/mL (≈ 8.96 µM), the “increase in MIC after the tenth passage” value (MRSA USA400 (NRS123); MRSA USA400) was “one-fold increase” and the “increase in MIC by the 14th passage from the original MIC” value (MRSA USA400 (NRS123); MRSA USA400) was “no additional increase in MIC”. The “change in MIC over nine passages” value (MRSA USA400 (NRS123); MRSA USA400, passages 1-9) was “remained unchanged”, the “concentration up to which non-toxic” value [3] was “up to 128 μg/mL” and the “concentration up to which non-toxic” value ([4]; J774 cells, 24 hours, tested 2 to 256 μg/mL) was “up to 128 μg/mL”. The “non-toxic concentration, fold higher than the MIC of F6 against MRSA” value ([4]; mouse and human, 24 h) was 63 fold, the MIC [5] was 2 µg/mL (≈ 4.48 µM) and the “reduction in MRSA USA300 (time-kill)” value (MRSA USA300; 3×MIC, after a 24-hour incubation period) was 2.42 log10. The “in vitro effect against MRSA USA300” value (MRSA USA300; time-kill analysis and MBC) was “bacteriostatic” and the “inhibition of growth of S. aureus” value (S. aureus) was “significantly inhibited the growth”.
